From PubChem BioAssay AID2060909 (Molecular Pharmacology Branch, DTP, NCI, 2025)

Test system: 362531-283-R-J2-PDC complex spheroid viability
Test: Anticancer human tumor 362531-283-R-J2-PDC patient-derived colon adenocarcinoma cell line growth inhibition [RAS]
Conditions: for IC50: curve of first compound; for viability, T/C: stronger effect = lower value
Method in brief: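 Multi-cell-type spheroids: tumor cells plus HUVEC endothelial cells and mesenchymal stem cells. RAS-pathway inhibitors were combined with targeted agents, each dosed in half-log steps down from clinical Cmax, or from 10 microM when Cmax was unknown.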

[1] = second compound 0.000949 µM, first compound 0.0316 µM
[2] = second compound 0.000949 µM, first compound 0.1 µM
[3] = second compound 0.000949 µM, first compound 0.316 µM
[4] = second compound 0.000949 µM, first compound 1 µM
[5] = second compound 0.003 µM, first compound 0.0316 µM
[6] = second compound 0.003 µM, first compound 0.1 µM
[7] = second compound 0.003 µM, first compound 0.316 µM
[8] = second compound 0.003 µM, first compound 1 µM
[9] = second compound 0.00949 µM, first compound 0.0316 µM
[10] = second compound 0.00949 µM, first compound 0.1 µM
[11] = second compound 0.00949 µM, first compound 0.316 µM
[12] = second compound 0.00949 µM, first compound 1 µM
[13] = second compound 0.03 µM, first compound 0.0316 µM
[14] = second compound 0.03 µM, first compound 0.1 µM
[15] = second compound 0.03 µM, first compound 0.316 µM
[16] = second compound 0.03 µM, first compound 1 µM
[17] = second compound 0.0949 µM, first compound 0.0316 µM
[18] = second compound 0.0949 µM, first compound 0.1 µM
[19] = second compound 0.0949 µM, first compound 0.316 µM
[20] = second compound 0.0949 µM, first compound 1 µM
[21] = second compound 0.3 µM, first compound 0.0316 µM
[22] = second compound 0.3 µM, first compound 0.1 µM
[23] = second compound 0.3 µM, first compound 0.316 µM
[24] = second compound 0.3 µM, first compound 1 µM
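Note: spheroids exposed to the agents for 7 days before readout.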
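Throughout, for viability, T/C: luminescence viability as percent of DMSO vehicle control wells.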

Question: For `C=CC(=O)N1CCN(c2nc(OCC3CCCN3C)nc3c(F)c(-c4nc(N)cc(C)c4C(F)(F)F)c(Cl)cc23)C(C)C1` (stereo unspecified) + CCn1c(-c2cc(N3CCN(C)CC3)cnc2C(C)OC)c2c3cc(ccc31)-c1csc(n1)CC(NC(=O)C1CC1C)C(=O)N1CCCC(N1)C(=O)OCC(C)(C)C2, which IC50 (second compound 0.000949 µM) is on record?
Answer: Its IC50 is > 1000 nM.

Question: What about the IC50 (second compound 0.003 µM) of the same molecule?
Answer: Its IC50 is > 1000 nM.

Question: And the IC50 (second compound 0.00949 µM)?
Answer: The IC50 was > 1000 nM.

Question: And the IC50 (second compound 0.03 µM)?
Answer: The IC50 was > 1000 nM.

Question: And the IC50 (second compound 0.0949 µM)?
Answer: The IC50 was > 1000 nM.

Question: What about the IC50 (second compound 0.3 µM) of the same molecule?
Answer: The IC50 was < 3.16 nM.

Question: What about the viability, T/C (second compound 0.000949 µM, first compound 0.00316 µM) of the same molecule?
Answer: The viability, T/C was 101%.

Question: And the viability, T/C (second compound 0.000949 µM, first compound 0.01 µM)?
Answer: Its viability, T/C is 100%.

Question: And the viability, T/C [1]?
Answer: Its viability, T/C is 107%.

Question: And the viability, T/C [2]?
Answer: Its viability, T/C is 92.5%.

Question: What about the viability, T/C [3] of the same molecule?
Answer: The viability, T/C was 94.3%.

Question: What about the viability, T/C [4] of the same molecule?
Answer: Its viability, T/C is 103%.

Question: And the viability, T/C (second compound 0.003 µM, first compound 0.00316 µM)?
Answer: The viability, T/C was 107%.

Question: What about the viability, T/C (second compound 0.003 µM, first compound 0.01 µM) of the same molecule?
Answer: Its viability, T/C is 103%.

Question: And the viability, T/C [5]?
Answer: Its viability, T/C is 97%.

Question: And the viability, T/C [6]?
Answer: Its viability, T/C is 92%.

Question: And the viability, T/C [7]?
Answer: Its viability, T/C is 104%.

Question: What about the viability, T/C [8] of the same molecule?
Answer: Its viability, T/C is 91.7%.

Question: And the viability, T/C (second compound 0.00949 µM, first compound 0.00316 µM)?
Answer: Its viability, T/C is 93.7%.

Question: And the viability, T/C (second compound 0.00949 µM, first compound 0.01 µM)?
Answer: The viability, T/C was 108%.

Question: What about the viability, T/C [9] of the same molecule?
Answer: Its viability, T/C is 104%.

Question: And the viability, T/C [10]?
Answer: The viability, T/C was 99.1%.

Question: What about the viability, T/C [11] of the same molecule?
Answer: The viability, T/C was 108%.

Question: And the viability, T/C [12]?
Answer: The viability, T/C was 106%.

Question: What about the viability, T/C (second compound 0.03 µM, first compound 0.00316 µM) of the same molecule?
Answer: The viability, T/C was 87.8%.

Question: And the viability, T/C (second compound 0.03 µM, first compound 0.01 µM)?
Answer: Its viability, T/C is 104%.

Question: What about the viability, T/C [13] of the same molecule?
Answer: Its viability, T/C is 86.8%.

Question: And the viability, T/C [14]?
Answer: The viability, T/C was 81.1%.

Question: What about the viability, T/C [15] of the same molecule?
Answer: Its viability, T/C is 95.7%.

Question: What about the viability, T/C [16] of the same molecule?
Answer: The viability, T/C was 101%.

Question: What about the viability, T/C (second compound 0.0949 µM, first compound 0.00316 µM) of the same molecule?
Answer: Its viability, T/C is 88%.

Question: What about the viability, T/C (second compound 0.0949 µM, first compound 0.01 µM) of the same molecule?
Answer: The viability, T/C was 87.5%.

Question: What about the viability, T/C [17] of the same molecule?
Answer: The viability, T/C was 81.2%.

Question: And the viability, T/C [18]?
Answer: Its viability, T/C is 80.3%.

Question: And the viability, T/C [19]?
Answer: Its viability, T/C is 75.5%.

Question: What about the viability, T/C [20] of the same molecule?
Answer: The viability, T/C was 90.5%.

Question: And the viability, T/C (second compound 0.3 µM, first compound 0.00316 µM)?
Answer: The viability, T/C was 43%.

Question: What about the viability, T/C (second compound 0.3 µM, first compound 0.01 µM) of the same molecule?
Answer: The viability, T/C was 57%.

Question: And the viability, T/C [21]?
Answer: Its viability, T/C is 41.2%.

Question: What about the viability, T/C [22] of the same molecule?
Answer: The viability, T/C was 45.9%.

Question: And the viability, T/C [23]?
Answer: The viability, T/C was 45.9%.

Question: What about the viability, T/C [24] of the same molecule?
Answer: The viability, T/C was 35%.

Question: What does the source list for `CC1(C)CCC(Nc2ncc(C(F)(F)F)c(-c3c[nH]c4c(P(C)(C)=O)c(C#N)ccc34)n2)CN1` (stereo unspecified) + CCn1c(-c2cc(N3CCN(C)CC3)cnc2C(C)OC)c2c3cc(ccc31)-c1csc(n1)CC(NC(=O)C1CC1C)C(=O)N1CCCC(N1)C(=O)OCC(C)(C)C2?
Answer: IC50 (second compound 0.000949 µM): > 300 nM; IC50 (second compound 0.003 µM): > 300 nM; IC50 (second compound 0.00949 µM): > 300 nM; IC50 (second compound 0.03 µM): > 300 nM; IC50 (second compound 0.0949 µM): > 300 nM; IC50 (second compound 0.3 µM): < 0.949 nM; viability, T/C (second compound 0.000949 µM, first compound 0.000949 µM): 104%; viability, T/C (second compound 0.000949 µM, first compound 0.003 µM): 97.3%; viability, T/C (second compound 0.000949 µM, first compound 0.00949 µM): 100%; viability, T/C (second compound 0.000949 µM, first compound 0.03 µM): 99.7%; viability, T/C (second compound 0.000949 µM, first compound 0.0949 µM): 93%; viability, T/C (second compound 0.000949 µM, first compound 0.3 µM): 95.1%; viability, T/C (second compound 0.003 µM, first compound 0.000949 µM): 104%; viability, T/C (second compound 0.003 µM, first compound 0.003 µM): 102%; viability, T/C (second compound 0.003 µM, first compound 0.00949 µM): 104%; viability, T/C (second compound 0.003 µM, first compound 0.03 µM): 97.1%; viability, T/C (second compound 0.003 µM, first compound 0.0949 µM): 101%; viability, T/C (second compound 0.003 µM, first compound 0.3 µM): 95.3%; viability, T/C (second compound 0.00949 µM, first compound 0.000949 µM): 103%; viability, T/C (second compound 0.00949 µM, first compound 0.003 µM): 110%; viability, T/C (second compound 0.00949 µM, first compound 0.00949 µM): 101%; viability, T/C (second compound 0.00949 µM, first compound 0.03 µM): 100%; viability, T/C (second compound 0.00949 µM, first compound 0.0949 µM): 105%; viability, T/C (second compound 0.00949 µM, first compound 0.3 µM): 104%; viability, T/C (second compound 0.03 µM, first compound 0.000949 µM): 101%; viability, T/C (second compound 0.03 µM, first compound 0.003 µM): 107%; viability, T/C (second compound 0.03 µM, first compound 0.00949 µM): 93.7%; viability, T/C (second compound 0.03 µM, first compound 0.03 µM): 92.9%; viability, T/C (second compound 0.03 µM, first compound 0.0949 µM): 98.6%; viability, T/C (second compound 0.03 µM, first compound 0.3 µM): 98.5%; viability, T/C (second compound 0.0949 µM, first compound 0.000949 µM): 85%; viability, T/C (second compound 0.0949 µM, first compound 0.003 µM): 82%; viability, T/C (second compound 0.0949 µM, first compound 0.00949 µM): 75.9%; viability, T/C (second compound 0.0949 µM, first compound 0.03 µM): 82.2%; viability, T/C (second compound 0.0949 µM, first compound 0.0949 µM): 82.2%; viability, T/C (second compound 0.0949 µM, first compound 0.3 µM): 102%; viability, T/C (second compound 0.3 µM, first compound 0.000949 µM): 40.9%; viability, T/C (second compound 0.3 µM, first compound 0.003 µM): 52%; viability, T/C (second compound 0.3 µM, first compound 0.00949 µM): 60.3%; viability, T/C (second compound 0.3 µM, first compound 0.03 µM): 58.7%; viability, T/C (second compound 0.3 µM, first compound 0.0949 µM): 68.5%; viability, T/C (second compound 0.3 µM, first compound 0.3 µM): 76.8%

Question: What does the source list for `CC(=O)OC12COC1CC(O)C1(C)C(=O)C(O)C3=C(C)C(OC(=O)C(O)C(NC(=O)OC(C)(C)C)c4ccccc4)CC(O)(C(OC(=O)c4ccccc4)C21)C3(C)C` (stereo unspecified) + CCn1c(-c2cc(N3CCN(C)CC3)cnc2C(C)OC)c2c3cc(ccc31)-c1csc(n1)CC(NC(=O)C1CC1C)C(=O)N1CCCC(N1)C(=O)OCC(C)(C)C2?
Answer: IC50 (second compound 0.000949 µM): 214 nM; IC50 (second compound 0.003 µM): 215 nM; IC50 (second compound 0.00949 µM): 192 nM; IC50 (second compound 0.03 µM): 164 nM; IC50 (second compound 0.0949 µM): 137 nM; IC50 (second compound 0.3 µM): < 31.6 nM; viability, T/C [1]: 92.9%; viability, T/C [2]: 95.2%; viability, T/C [3]: 27.5%; viability, T/C [4]: 16.7%; viability, T/C (second compound 0.000949 µM, first compound 3.16 µM): 18.1%; viability, T/C (second compound 0.000949 µM, first compound 10 µM): 31.9%; viability, T/C [5]: 103%; viability, T/C [6]: 92.7%; viability, T/C [7]: 28.7%; viability, T/C [8]: 13.6%; viability, T/C (second compound 0.003 µM, first compound 3.16 µM): 19.1%; viability, T/C (second compound 0.003 µM, first compound 10 µM): 19.9%; viability, T/C [9]: 94.2%; viability, T/C [10]: 91%; viability, T/C [11]: 18.8%; viability, T/C [12]: 12.9%; viability, T/C (second compound 0.00949 µM, first compound 3.16 µM): 9.58%; viability, T/C (second compound 0.00949 µM, first compound 10 µM): 15.8%; viability, T/C [13]: 76.8%; viability, T/C [14]: 77.5%; viability, T/C [15]: 14.2%; viability, T/C [16]: 7.82%; viability, T/C (second compound 0.03 µM, first compound 3.16 µM): 8.32%; viability, T/C (second compound 0.03 µM, first compound 10 µM): 11.6%; viability, T/C [17]: 68.7%; viability, T/C [18]: 65.5%; viability, T/C [19]: 9.07%; viability, T/C [20]: 7.86%; viability, T/C (second compound 0.0949 µM, first compound 3.16 µM): 8.53%; viability, T/C (second compound 0.0949 µM, first compound 10 µM): 7.69%; viability, T/C [21]: 43.2%; viability, T/C [22]: 20.1%; viability, T/C [23]: 7.36%; viability, T/C [24]: 4.87%; viability, T/C (second compound 0.3 µM, first compound 3.16 µM): 5.33%; viability, T/C (second compound 0.3 µM, first compound 10 µM): 4.75%
